Experimental data taken from the SangsterLogP compilation.
*1 amine or outer side, *2 acyl side, *3 side chain or, on linkers, in order; H or OH if unused. Positions of bridges follow the written chain, without caps; N, C: chain ends. Where a SMILES comes first, the peptide text is derived from it. Residues, ends and D or L forms follow the SMILES beside them. [ ]: non-standard residue; d: D form. The star is where a group is joined. X1 = CC(C)C[C@H](N[*:1])[C@@H](O)C[C@H](C(=O)[*:2])C(C)C; NMeH = CN[C@@H](Cc1c[nH]cn1)C(=O)O; NHCH2(2-pyridyl) = c1ccc(CN*)nc1; Boc = CC(C)(C)OC(=O)*

What was measured:
[1] = method code SF-AS, from DOI: 10.1021/jm0401006, PMID: 15481980; settings: pH 7.4
[2] = method code SF, from DOI: 10.1016/s0928-0987(97)10019-7; settings: pH 7.4
[3] = not given; remark: listed apart in the source
[4] = method code SF-AS, from DOI: 10.1562/0031-8655(2002)076<0127:dlbcop>2.0.co;2, PMID: 12194207; settings: pH 7.3
[5] = pH 7.4
[6] = method code SF-AS, from DOI: 10.1562/0031-8655(2003)0780411sacotn2.0.co2, PMID: 14626671; settings: pH 6.8
[7] = method code SF, from DOI: 10.1021/jm00079a001, PMID: 1732531; settings: pH 7.4
[8] = not given; remark: listed apart in the source
[9] = not given; remark: listed apart in the source
[10] = not given; remark: listed apart in the source
[11] = method code SF-AS, from DOI: 10.1002/qua.560100722; settings: pH 7.8
[12] = method code SF-AS, from DOI: 10.1021/jm00371a014, PMID: 6716401; settings: pH 7.4
[13] = not given; remark: listed apart in the source
[14] = method code AS, from DOI: 10.1081/jlc-120022394
[15] = not given; remark: listed apart in the source
[16] = method code SF-RC, from DOI: 10.1002/jps.2600770619, PMID: 3171939; settings: pH 2.0
[17] = not given; remark: listed apart in the source
[18] = not given; remark: listed apart in the source
[19] = method code SF-RC, from DOI: 10.1002/jps.2600730807, PMID: 6491907
[20] = method code SF-RC, from PMID: 3346819; settings: pH 7.4
[21] = not given; remark: listed apart in the source
[22] = not given; remark: listed apart in the source
[23] = method code SF, from Moerlein, M.; Dischino, D.; Raymond, N.; Weitl, L.; Welch, J. (1982). Factors affecting the cerebral uptake of gallium complexes. J Labelled Comp Radiopharm, 19(11-12)1421-1422.; settings: pH 7.0
[24] = not given; remark: listed apart in the source
[25] = not given; remark: listed apart in the source
[26] = not given; remark: listed apart in the source
[27] = not given; remark: listed apart in the source
[28] = method code SF-AS, from DOI: 10.1016/s0960-894x(99)00527-2, PMID: 10571171; settings: pH 7.0

CC(C)(C)NC(=O)[C@@H]1C[C@@H]2CCCC[C@@H]2CN1C[C@@H](O)[C@H](Cc1ccccc1)NC(=O)[C@H](CC(N)=O)NC(=O)c1ccc2ccccc2n1
logP: 3

CCOC(=O)c1cnc2c(c(C)nn2C)c1Nc1ccc(OC(C)=O)cc1
logD [1]: 1.67

CC(C)(C)S(=O)(=O)C[C@@H](Cc1ccccc1)C(=O)N[C@@H](Cc1cnc[nH]1)C(=O)N[C@@H](CC1CCCCC1)[C@@H](O)[C@@H](O)C1CC1
logD [2]: 2.75

Cc1ccccc1Nc1nc2ccc(C(=O)NC(CCCCNC(=O)C=Cc3cccnc3)C(=O)NC(CCCC(=O)O)C(=O)NC3(C(N)=O)CCCCC3)cc2[nH]1 (centres undefined)
logP [3]: 1.88

COC(=O)CCC1=C(C)c2cc3cc(C)c(cc4cc(C)c(cc5nc(cc1n2)C(CCC(=O)OC)=C5C)[nH]4)[nH]3
logD [4]: 3.95

CCN1CC(C(O)C(CC2CCCCC2)NC(=O)C(Cc2cscn2)NC(=O)C(CC(=O)N2CCOCC2)Cc2ccccc2)OC1=O (centres undefined)
logD [5]: 2.83

COc1c(O)c2c(=O)cc(OC)c3c4c(OC)cc(=O)c5c(O)c(NCCN6CCOCC6)c6c(c(c1C(C(C)=O)=C(C)C6)c23)c54
logD [6]: 1.15

C=CCC(NC(=O)C(Cc1ccccc1)NS(=O)(=O)N1CCOCC1)C(=O)NC(CC1CCCCC1)C(=O)C(F)(F)C(=O)NCC(C)CC (centres undefined)
logD [7]: 4.63

CCn1c(=O)c2c(nc(C=Cc3ccc(C(=O)OCCOCCOCCOCCOCCOCCOCCOCCOCCOC)c(OC)c3)n2C)n(CC)c1=O
logP [8]: 2.8

CC[C@H](C)[C@H](NC(=O)[C@@H](C[C@H](O)[C@H](CC(C)C)NC(=O)[C@H](Cc1cnc[nH]1)N(C)C(=O)[C@H](Cc1ccccc1)NC(=O)[C@@H]1CCCN1C(=O)OC(C)(C)C)C(C)C)C(=O)NCc1ccccn1 (Boc-PF[NMeH][X1]I-{NHCH2(2-pyridyl)})
logP [9]: 4.2

CO[C@@H](CC[C@H](C)[C@H]1O[C@@]23CC(OC(=O)C[C@H]([C@@H](C)O)OC(=O)C[C@](O)(O2)[C@H](C)CC3(C)C)[C@@H]1C)c1cc(O)ccc1Br
logP [10]: 5.4

COc1cccc2c1C(=O)c1c(O)c3c(c(O)c1C2=O)CC(O)(C(C)=O)CC3OC1CC(NC(=O)CNC(=O)CN(C)C)C(O)C(C)O1 (centres undefined)
logD [11]: 1.12

COc1cccc2c1C(=N)c1c(O)c3c(c(O)c1C2=O)C[C@](O)(C(=O)CO)C[C@@H]3O[C@H]1C[C@@H](N2CCOC[C@@H]2C#N)[C@@H](O)[C@@H](C)O1
logD [12]: 1.97

CCCN(CCC)C(=O)Cc1c(-c2ccc(OC(=O)NCCc3ccc(O)c(O)c3)cc2)nc2ccc(Cl)cn12
logP [13]: 4.3

CCOC(=O)C(=Cc1ccc(Cl)cc1)NC=O
logP [14]: 2.65

C=CC[C@@H]1/C=C(\C)C[C@H](C)C[C@H](OC)[C@H]2O[C@@](O)(C(=O)C(=O)N3CCCC[C@H]3C(=O)O[C@H](/C(C)=C/[C@@H]3CC[C@@H](O)[C@H](OC)C3)[C@H](C)[C@@H](O)CC1=O)[C@H](C)C[C@@H]2OC
logP [15]: 3.3

CC1(C)C(OC(=O)CCC(=O)O)CC[C@@]2(C)[C@H]1CC[C@]1(C)[C@H]2C(=O)C=C2[C@@H]3C[C@@](C)(C(=O)O)CC[C@]3(C)CC[C@]21C (some centres undefined)
logD [16]: 2.81

COC(=O)[C@H](Cc1ccccc1)NC(=O)[C@H](Cc1ccccc1)NC(=O)[C@@H](NC(=O)[C@H](CC(C)C)NC(=O)[C@H](CCCCNC(=O)OCc1ccccc1)NC(=O)OC(C)(C)C)C(C)C
logP [17]: 7.62

CCC(C(=O)OCc1ccc(COC(=O)C(CC)C(COC(=O)c2ccccc2)Cc2cncn2C)cc1)C(COC(=O)c1ccccc1)Cc1cncn1C (centres undefined)
logP [18]: 6.37

CC1OC(OC2C(O)CC(OC3C(O)CC(OC4CCC5(C)C(CCC6C5CC(O)C5(C)C(C7COC(=O)C7)CCC65O)C4)OC3C)OC2C)CC(O)C1O (centres undefined)
logP [19]: 1.25

CC(CNC(=O)c1ccccc1)C(=O)OCC(=O)C12OC(C)(C)OC1CC1C3CCC4=CC(=O)C=CC4(C)C3(F)C(O)CC12C (centres undefined)
logD [20]: 2.3

CCCC(=O)O[C@H]1[C@H](C)O[C@@H](O[C@H]2[C@H](N(C)C)[C@@H](O)[C@H](O[C@H]3[C@@H](CC=O)C[C@@H](C)[C@@H](O)/C=C/C=C/C[C@@H](C)OC(=O)C[C@@H](O)[C@@H]3OC)O[C@@H]2C)C[C@@]1(C)OC(=O)CC
logP [21]: 3.08

CC[C@H](C)[C@@H]1NC(=O)[C@H](Cc2ccc(O)cc2)NC(=O)[C@@H](N)CSSC[C@@H](C(=O)N2CCC[C@H]2C(=O)N[C@@H](CCCN=C(N)N)C(=O)NCC(N)=O)NC(=O)[C@H](CC(N)=O)NC(=O)[C@H](CCC(N)=O)NC1=O (H-CYIQNCPRG-NH2; disulfide 1-6)
logP [22]: -1.62

CCCCCCCCN(CCCCN(CCCN(CCCCCCCC)C(=O)c1cccc(O)c1O)C(=O)c1cccc(O)c1O)C(=O)c1cccc(O)c1O
logD [23]: 0.51

CO[C@H]1C=CO[C@@]2(C)Oc3c(C)c(O)c4c(c3C2=O)C(=O)/C(=C/NN2CCN(C3CCCC3)CC2)C(=C4O)NC(=O)/C(C)=C\C=C/[C@H](C)[C@H](O)[C@@H](C)[C@@H](O)[C@H](C)[C@H](OC(C)=O)[C@H]1C
logP [24]: 1.24

COc1cc(CN2C(=O)N(Cc3cccc(C(=O)Nc4cnc(C)cn4)c3)C(Cc3ccccc3)C(O)C(O)C2Cc2ccccc2)cc(OC)c1 (centres undefined)
logP [25]: 5.59

COc1ccc(C2(O)OC(=O)C(c3ccc4c(c3)OCO4)=C2Cc2cc(OC)c(OC)c(OCCOCCOCCOCCOCc3cn(C4OC(CO)C(O)C(O)C4F)nn3)c2)cc1 (centres undefined)
logP [26]: -0.4

CC1(C)CC[C@]2(C(=O)O)CC[C@]3(C)C(=CC[C@@H]4[C@@]5(C)CC[C@H](O)C(C)(C)[C@@H]5CC[C@]43C)[C@@H]2C1
logP [27]: 3.63

O=C(NCCN(CCNC(=O)c1ccc2cccnc2c1O)CCNC(=O)c1ccc2cccnc2c1O)c1ccc2cccnc2c1O
logD [28]: 1
